Data taken from US12433908B2, “Use of nicotinamide riboside, nicotinic acid riboside, and nicotinamide mononucleotide, reduced nicotinyl compounds, and nicotinoyl compound derivatives in infant formula for healthy development” (ChromaDex, Inc., priority 2016, dated 2025).

Tests used:
[1] = Stability of NR in liquid (water, milk); assay type: physicochemical
[2] = Blood chemistry analysis of piglets given NR solution; assay type: in vivo, piglets (Yorkshire/Hampshire crossbred)
Description: Sixteen (n=16) Yorkshire/Hampshire crossbred piglets were obtained from the University of California, Davis Swine Teaching and Research Center and received on lactation day (“LD”) 14. Prior to arrive, the piglets were processed by the suppler between 1-3 days of age by administration of iron and an antibiotic ([…] for swine) as is common practice at the University of California, Davis Swine Facility. It is not common practice at the University of California, Davis Swine Facility to give a second dose of iron and antibiotics unless it becomes necessary. The piglets were from two litters (litters 15 and 17), weaned at 17 days of age, and randomly placed into one of two groups balanced for litter, sex, and weight. The animals were not acclimated to the facility at arrival and were subsequently acclimated to the test diet administration system. The piglets were weaned into a temperature-controlled room (approximately 27-29° C.) that contained 10 adjacent pens. The piglets were group-housed in the nursery room at the Swine Facility, which is an enclosed room with access restricted to trained personnel. The two groups were separated by one pen containing piglets of similar age. Each morning enough nicotinamide riboside (NR, I) in water solution was prepared for that day's dose administration according to the dose preparation protocol. At least 5 mL of prepared dose was reserved and immediately frozen after preparation each day for analysis of nicotinamide riboside (NR, I) for the purpose of confirming stability of the dose material. The doses were stored at refrigeration temperature while not in use. Nicotinamide riboside (NR, I) was dosed once per day in the morning and at the same time each day. Piglets in the control group received the same volume of plain water and were dosed on the same schedule. Starting on Day 1, animals in the nicotinamide riboside (NR, I) group were dosed once daily (in the morning) with 277 mg nicotinamide riboside (NR, I) per pig resuspended in water for seven days. After one week, animals were dosed once daily with 342 mg nicotinamide riboside (NR, I) per pig delivered in 2.5 mL for seven days. For Days 1 and 2, the nicotinamide riboside (NR, I) solution was prepared by resuspending 2770 mg nicotinamide riboside (NR, I) in 50 mL water, and 5 mL of this solution was delivered to each pig by squirting it into the back of the mouth using a 10 mL syringe with a piece of tubing attached to the end. To reduce the volume to more efficiently deliver the nicotinamide riboside (NR, I) solution, the 2770 mg was resuspended in 25 mL water and 2.5 mL of the solution was squirted into the back of the mouth of each pig using a 3 mL syringe for Days 3-7. For Days 8-14, 3420 mg nicotinamide riboside (NR, I) was resuspended in 25 mL water and 2.5 mL of this solution was delivered to each pig. Each day prior to dosing, 2.5 mL of the nicotinamide riboside (NR, I) (5 mL on Days 1 and 2) were placed into a separate tube and frozen. Blood was collected from each pig via jugular venipuncture on Days 1, 8, and 14. In each instance, blood was collected prior to dosing with nicotinamide riboside (NR, I). On Day 1, the sow was removed from the piglets for approximately three hours prior to sample collection. On Days 8 and 14, feed was removed from the animals' pens 12 hours prior to sample collection. Blood was collected into purple-top vacutainers for CBC analysis and into red-top vacutainers for blood chemistry analysis. CBC analysis was performed at IDEXX Laboratories in West Sacramento, California using the Sysmex XT-iV Vet Hematology Autoanalyzer (Sysmex America Inc., Lincolnshire, Illinois). Red-top tubes were spun to collect serum and the serum frozen. Frozen aliquots (500 μL) were submitted to the University of California, Davis Veterinary medicine Teaching Hospital Clinical Diagnostic Laboratory for Blood Chemistry Analysis using the Cobas 6000 C501 Clinical Chemistry Analyzer (Roche Diagnostics, Indianapolis, IN). […]

[3] = Wk 1, 277 mg/pig once daily oral
[4] = Wk 2, 342 mg/pig once daily oral Days 8-14

Compound: NC(=O)c1ccc[n+]([C@@H]2O[C@H](CO)[C@@H](O)[C@H]2O)c1 [NR, Nicotinamide riboside]
- stability in milk ([1]; cow's milk and human breast milk): stable in milk
- stability in water ([1]; in water): unstable over time
- AST ([2]; Baseline, before dosing): 45.5 U/L
- Albumin ([2]; Baseline, before dosing): 3.74 g/dL
- Alkaline Phosphatase ([2]; Baseline, before dosing): 720 U/L
- Anion Gap ([2]; Baseline, before dosing): 26.7 mmol/L
- BUN ([2]; Baseline, before dosing): 5.8 mg/dL
- Bicarbonate ([2]; Baseline, before dosing): 19.4 mmol/L
- Bilirubin Total ([2]; Baseline, before dosing): 0.40 mg/dL
- Calcium ([2]; Baseline, before dosing): 10.6 mg/dL
- Chloride ([2]; Baseline, before dosing): 100.3 mmol/L
- Creatine Kinase ([2]; Baseline, before dosing): 1.30 ×10^3 U/L
- Creatinine ([2]; Baseline, before dosing): 0.94 mg/dL
- GGT ([2]; Baseline, before dosing): 43.8 U/L
- Globulin ([2]; Baseline, before dosing): 0.86 g/dL
- Glucose ([2]; Baseline, before dosing): 117.8 mg/dL
- Phosphorus ([2]; Baseline, before dosing): 9.9 mg/dL
- Potassium ([2]; Baseline, before dosing): 4.50 mmol/L
- Sodium ([2]; Baseline, before dosing): 141.9 mmol/L
- Total Protein ([2]; Baseline, before dosing): 4.59 g/dL
- AST [2, 3]: 50.6 U/L
- Albumin [2, 3]: 3.43 g/dL
- Alkaline Phosphatase [2, 3]: 326 U/L
- Anion Gap [2, 3]: 21.1 mmol/L
- BUN [2, 3]: 10.9 mg/dL
- Bicarbonate [2, 3]: 20.1 mmol/L
- Bilirubin Total [2, 3]: 0.40 mg/dL
- Calcium [2, 3]: 9.0 mg/dL
- Chloride [2, 3]: 96.1 mmol/L
- Creatine Kinase [2, 3]: 0.88 ×10^3 U/L
- Creatinine [2, 3]: 1.07 mg/dL
- GGT [2, 3]: 41.4 U/L
- Globulin [2, 3]: 0.97 g/dL
- Glucose [2, 3]: 99.7 mg/dL
- Phosphorus [2, 3]: 6.5 mg/dL
- Potassium [2, 3]: 4.27 mmol/L
- Sodium [2, 3]: 133.1 mmol/L
- Total Protein [2, 3]: 4.40 g/dL
- AST [2, 4]: 36.7 U/L
- Albumin [2, 4]: 3.29 g/dL
- Alkaline Phosphatase [2, 4]: 285 U/L
- Anion Gap [2, 4]: 20.4 mmol/L
- BUN [2, 4]: 8.6 mg/dL
- Bicarbonate [2, 4]: 23.7 mmol/L
- Bilirubin Total [2, 4]: 0.27 mg/dL
- Calcium [2, 4]: 9.8 mg/dL
- Chloride [2, 4]: 97.1 mmol/L
- Creatine Kinase [2, 4]: 0.55 ×10^3 U/L
- Creatinine [2, 4]: 0.80 mg/dL
- GGT [2, 4]: 42.6 U/L
- Globulin [2, 4]: 1.20 g/dL
- Glucose [2, 4]: 77.1 mg/dL
- Phosphorus [2, 4]: 7.5 mg/dL
- Potassium [2, 4]: 4.10 mmol/L
- Sodium [2, 4]: 137.3 mmol/L
- Total Protein [2, 4]: 4.49 g/dL
